Test results: the NIST ThermoML archive (doi:10.1016/j.jct.2005.03.006)

Experiment: wn = mass fraction of the nth substance listed
Settings: Liquid, Buoyancy - hydrostatic balance

CCc1ccccc1 [ethylbenzene] + CO
mass density [kg/m3]
Settings | 100 kPa | 5000 kPa | 9900 kPa | 19700 kPa | 29700 kPa | 39300 kPa | 49100 kPa | 58900 kPa
292.05 K, w2 = 0.5 | 830.6 | 834.1 | 838.5 | 845.6 | 852.2 | 858.6 | 864.4 | 871.2
292.4 K, w2 = 0.75 | 813.3 | 817.6 | 822.1 | 827.7 | 836.5 | 843 | 848.8 | 855.8
292.65 K, w2 = 0.25 | 848 | 851.5 | 855.3 | 862.7 | 868.8 | 874.8 | 880.7 | 886.8
314.55 K, w2 = 0.5 | 810.8 | 815.2 | 819.6 | 827.8 | 835.2 | 842 | 848.6 | 854.4
314.65 K, w2 = 0.25 | 828.6 | 833.1 | 837.2 | 845.1 | 852 | 859 | 869.3 | 871.5
317.6 K, w2 = 0.75 | 795.3 | 799.8 | 804 | 810.8 | 820.2 | 827.4 | – | 840.4
335.35 K, w2 = 0.75 | – | 778.8 | 783 | 790.7 | 801.3 | 809.4 | 816.4 | 823.5
335.45 K, w2 = 0.25 | – | 815 | 819.5 | 828.3 | 836.8 | 844.1 | 850.4 | 856.4
337.65 K, w2 = 0.5 | – | 794.3 | 799.5 | 808.3 | 816.7 | 824.4 | 831.7 | 837.8
358.8 K, w2 = 0.75 | – | 754.4 | 759.7 | 768.5 | 780.5 | 789.6 | 797.4 | 805.5
359.95 K, w2 = 0.25 | – | 790.3 | 796.2 | 807.6 | 817.7 | 825.5 | 831.8 | 838
360.45 K, w2 = 0.5 | – | 771.3 | 778.5 | 788.1 | 797.9 | 806.5 | 814.1 | 820.5
384.05 K, w2 = 0.75 | – | 725.4 | 732.8 | 743 | 757.2 | 767.3 | 776.2 | 785.4
384.45 K, w2 = 0.5 | – | 744 | 754.8 | 766.4 | 777.5 | 786.6 | 797.7 | 801.6
385.75 K, w2 = 0.25 | – | 763.2 | 770.7 | 785.7 | 797.4 | 806 | 813 | 819.7
407.15 K, w2 = 0.25 | – | 739 | 748.1 | 765 | 778.9 | – | 796.4 | 804.1
408.15 K, w2 = 0.5 | – | 713.2 | 729.5 | 742.4 | 754.8 | 765.3 | 774.1 | 783
410.05 K, w2 = 0.75 | – | 691 | 701 | 714.3 | 731.6 | 742.6 | 753.1 | 763
433.5 K, w2 = 0.25 | – | 707.9 | 719.4 | 739 | 755.8 | 767 | 775 | 784.4
434.15 K, w2 = 0.5 | – | 677.4 | 695.9 | 712.8 | 728.6 | 741.1 | 751.2 | 761.4
434.35 K, w2 = 0.75 | – | 654.7 | 668.2 | 686 | 706.5 | 719 | 730.7 | 742.3
459.55 K, w2 = 0.75 | – | 608.3 | 628.7 | 651.4 | 677.4 | 692.5 | 706.4 | 719.5
460.25 K, w2 = 0.5 | – | 634.7 | 653.7 | 677.5 | 697.7 | 713.4 | 726.4 | 738.3
460.45 K, w2 = 0.25 | – | 668.7 | 683.4 | 708.2 | 727.1 | 740.5 | 751.2 | 761.5
489.65 K, w2 = 0.75 | – | 527.2 | 571 | 607 | 640.3 | 659.7 | 677.3 | 692.8
491.15 K, w2 = 0.5 | – | 554 | 594.2 | 633.2 | 656.5 | – | 693 | 708.6
497.95 K, w2 = 0.25 | – | 623 | 640.4 | 671 | 693.7 | 710.4 | 724.5 | 736

c1ccccc1 [benzene] + CO
mass density [kg/m3]
Settings | 100 kPa | 5000 kPa | 9900 kPa | 19700 kPa | 29500 kPa | 39300 kPa | 49100 kPa | 58900 kPa
287.65 K, w2 = 0.5 | 840.5 | 844.4 | 847.9 | 855.8 | 863 | 869.5 | 875.2 | 881
291.15 K, w2 = 0.25 | 857.7 | 862 | 866.1 | 873.8 | 880.6 | 887.3 | 893.2 | 899.1
292.65 K, w2 = 0.75 | 815.2 | 819.9 | 824.2 | 832.1 | 839.2 | 846.4 | 852.5 | 858.7
297.35 K, w2 = 0.5 | 830.9 | 835.6 | 839.9 | 847.7 | 855 | 862.1 | 868 | 874
313.66 K, w2 = 0.25 | 835 | 840.1 | 844.8 | 852.9 | 860.8 | 868.4 | 875.1 | 881
314.15 K, w2 = 0.75 | 795.6 | 800.3 | 804.7 | 813 | 821.1 | 828.8 | 835.9 | –
322.15 K, w2 = 0.5 | 806.5 | 811.8 | 817 | 825.3 | 833.4 | 841.4 | 848.2 | 855.1
337.37 K, w2 = 0.25 | – | 816.2 | 822.1 | 831 | 840 | 848.3 | 856 | 862.7
338.35 K, w2 = 0.75 | – | 776.6 | 781.6 | 791 | 800.2 | 809 | 817.1 | 823.9
341.35 K, w2 = 0.5 | – | 791.4 | 797.7 | 807.3 | 816.2 | 825.1 | 832.9 | 840
356.15 K, w2 = 0.5 | – | 775.2 | 781.8 | 792 | 802.8 | 811.7 | 819.8 | 827.6
361.64 K, w2 = 0.25 | – | 789.2 | 796.5 | 806.8 | 817.1 | 826.9 | 835 | 842.7
361.65 K, w2 = 0.75 | – | 750.9 | 757 | 767.9 | 778.4 | 788.1 | 797 | 804.9
376.65 K, w2 = 0.5 | – | 750.9 | 758.2 | 770.8 | 784 | 793.2 | 801.8 | –
383.15 K, w2 = 0.75 | – | 724.9 | 732.5 | 745 | 757.4 | 768.2 | 777.8 | 786.9
383.16 K, w2 = 0.25 | – | 764.1 | 772.6 | 784.4 | 796.3 | 807.6 | 815.9 | 824.8
402.15 K, w2 = 0.5 | – | 718.4 | 726.6 | 742.7 | 757.7 | 769 | 778.9 | 788.6
406.65 K, w2 = 0.75 | – | 693.4 | 703.3 | 718.9 | 733.3 | 745 | 755.9 | 766.2
407.66 K, w2 = 0.25 | – | 732 | 741.5 | 757.6 | 771.3 | 784.6 | 793.3 | 803.2
428.15 K, w2 = 0.5 | – | 678.8 | 689.5 | 710.6 | 728.7 | 742.1 | 753.2 | 764.7
429.26 K, w2 = 0.25 | – | 699.7 | 710.6 | 731.1 | 748.2 | 762.9 | 773 | 783.8
431.35 K, w2 = 0.75 | – | 656.6 | 667.9 | 689.5 | 706.7 | 720 | 732.5 | 744.1
453.2 K, w2 = 0.25 | – | 659.6 | 673.3 | 699.7 | 720.8 | 736.9 | 748.8 | 760.9
453.65 K, w2 = 0.5 | – | 634 | 649.1 | 676.5 | 697.6 | 714 | 727 | 739.3
458.5 K, w2 = 0.75 | – | 605.4 | 624.7 | 653.6 | 674.8 | 690.2 | 705 | 718.3
475.26 K, w2 = 0.25 | – | 616.4 | 639.6 | 669.8 | 694.3 | 710.8 | 725.7 | 739.4
477.35 K, w2 = 0.75 | – | 558.2 | 590.9 | 628.5 | 652.3 | 669.8 | 686.2 | 699.9
496.65 K, w2 = 0.75 | – | 483.6 | 549.1 | 601.8 | 628.5 | 647.8 | 665.6 | 680.8
497.15 K, w2 = 0.5 | – | 520.7 | 570 | 617.6 | 643.1 | 661.9 | 680.8 | 694.6
497.17 K, w2 = 0.25 | – | 566.6 | 598.9 | 639 | 664.5 | 684.2 | 701.6 | 717
